One experiment concerns J4 (GT1b). Nature of the experiment: Luciferase infection assay, chimeric reporter virus J4/1b/R2a in Huh7-Lunet/CD81 cells. Type of experiment: cell-based, HCV. The settings on record: Hepatitis C virus, Huh-7, 72 h.
In the next experiment the test system is J8 (GT2b). The experiment is described as follows: Luciferase infection assay, chimeric reporter virus J8/2b/R2a in Huh7-Lunet/CD81 cells. As to conditions: Hepatitis C virus, Huh-7, 72 h. The class given is cell-based, HCV.
A further experiment has as its system S52 (GT3a). Nature of the experiment: Luciferase infection assay, chimeric reporter virus S52/3a/R2a in Huh7-Lunet/CD81 cells. Type of experiment: cell-based, HCV. The settings on record: Hepatitis C virus, Huh-7, 72 h.
The test system of a further experiment is SA13 (GT5a). Nature of the experiment: Luciferase infection assay, chimeric reporter virus SA13/5a/R2a in Huh7-Lunet/CD81 cells. The class given is cell-based, HCV. As to conditions: Hepatitis C virus, Huh-7, 72 h.
The test system of another experiment is Luc-Jc1 reporter viruses. Nature of the experiment: Drug added before, during or after inoculation with Luc-Jc1 reporter virus (FIG. 2C). The class given is cell-based, HCV. As to conditions: luciferase 72 h. Here is the method:
(A) Huh7-Lunet/CD81 cells were transfected with the subgenomic luciferase replicon depicted at the top. Drugs were added 4 h post transfection and the level of HCV RNA translation and RNA replication was quantified by luciferase assays 72 h post transfection. Mean values of three independent experiments each with quadruplicate measurements including the standard deviation are shown. (B) Cells were transfected with the Jc1 chimera depicted above and drugs were added 4 h later. HCV virus release in the presence or absence of given compounds was determined by quantification of intracellular and extracellular core protein levels using a core-specific ELISA. […] Infectivity was determined 72 h later by luciferase assays and compared to DMSO-treated controls. […]
Huh7-Lunet/CD81 cells were infected with reporter virus particles essentially as described recently (Koutsoudakis et al., J. Virol. 2006; 80: 5308-5320). […] Cells were inoculated for 4 h at 37° C., viral inoculum was replaced by fresh culture fluid and infection was quantified 48 h or 72 h after virus inoculation using luciferase assays. […] Cells infected with the renilla reporter virus were lysed in 200 μl lysis buffer (Promega, Mannheim, Germany) and after addition of the luciferase substrate (1 μM of coelenterazin (P. J. K., Kleinblittersdorf, Germany) in PBS) measured for 1 s in a luminometer (Lumat LB9507, Berthold, Freiburg, Germany). […]

The next experiment relates to Con1/C3-HCV. The experiment is described as follows: Infection of primary human hepatocytes, focus-formation assay. The class given is cell-based. As to conditions: Hepatitis C virus, genotype 1b, Hepatocyte, 72 h. How it is done:
FIG. 4: BJ486K is not affected by viral resistance towards a SR-BI-targeting compound, inhibits HCV of different genotypes and prevents infection of primary human hepatocytes Huh7-Lunet/CD81 cells were inoculated with Luc-Jc1 or Luc-Jc1/E2/G451R reporter viruses in the presence of increasing doses of (A) ITX 5061 or (B) BJ486K. Cells were lysed 72 h later. Luciferase activity was determined and is expressed relative to control infections conducted in the presence of DMSO. Mean values of four independent experiments each with quadruplicate measurements including the standard deviation are shown. […] Luciferase activity was determined 72 h later and is expressed relative to infections in the presence of DMSO. […] The inhibition of HCV infection was assessed by focus-formation assay and is expressed as % inhibition relative to DMSO-treated cells. […]
Normal-appearing liver tissue from patients seronegative for HCV, hepatitis B virus, and human immunodeficiency virus (HIV) was obtained from adult patients undergoing partial hepatectomy for the therapy of metastases. […] Three days later, infectivity titers in culture supernatants were determined by focus-formation assay as previously described by (Pene et al., Journal of Viral Hepatitis 2009;16:705-15). […]

The test system of another experiment is Jc1. Nature of the experiment: Infection of DMSO-differentiated Huh7-Lunet/CD81 cells with Jc1, limiting dilution assay. The class given is cell-based, HCV. The settings on record: virus production monitored for 12 days. An excerpt: Next, we investigated if combination of CsA, an inhibitor of HCV RNA-replication in vitro and in vivo and also an immunosuppressive drug used in the HCV post-transplant setting, with BJ486K would increase antiviral potency. To this end, we challenged Huh7-Lunet/CD81 cells differentiated by DMSO-treatment with the highly infectious Jc1 chimera in the presence of CsA, BJ486K or a combination of both drugs (FIG. 5). […] To obtain a more quantitative measure for the combined antiviral effect of BJ486K and CsA, we inoculated nave Huh7-Lunet/CD81 cells with JcR-2a virus together with varying doses of both drugs (FIG. 6A).

Experimental findings from patent publication US20150056166A1, “FLAVONE DERIVATIVES AND THEIR USE” (Twincore GmbH, priority 2012, published 2015) are described below.

In general, IC50 refers to the concentration needed to halve the response being measured. A low value points to inhibition by little substance. For orientation: IC90 means the point of the concentration-response curve where the effect stands at 90%. A higher IC90 goes with a need for much substance.

In the case of `COc1ccc(-c2cc(=O)c3c(O)c(O)c(OC)cc3o2)cc1` [BJ486K, 5,6-Dihydroxy-7-methoxy-2-(4-methoxy-phenyl)-chromen-4-one], the IC50 in the experiment with J4 (GT1b) was 2.35 µM; in the experiment with J8 (GT2b) it was 4.14 µM; with S52 (GT3a), 2.89 µM; with SA13 (GT5a), 1.39 µM; in the experiment on Con1/C3-HCV, around 10 µM. Also, the IC90 in the experiment with J4 (GT1b) was found to be 9.29 µM; with J8 (GT2b) it was 8.42 µM; with S52 (GT3a), 10.7 µM; in the experiment on SA13 (GT5a), 5.33 µM. Moreover, the “interference with HCV infection by time of addition” value in the experiment on Luc-Jc1 reporter viruses is “only interfered with HCV infection when the drug was present during virus inoculation”. The “effect on infection of differentiated cells, in words” value with Jc1 is recorded as “reduced infection almost down to background levels”.
